Measurements reported in EP0533241A2, “Substituted alkyl derivatives of piperazinylcamphorsulfonyl oxytocin antagonists” (MERCK & CO. INC., priority 1991, dated 1993).

Target: T1, uterine OT receptors (Rattus norvegicus, UniProt P70536)
T1 sequence (P70536 1-388): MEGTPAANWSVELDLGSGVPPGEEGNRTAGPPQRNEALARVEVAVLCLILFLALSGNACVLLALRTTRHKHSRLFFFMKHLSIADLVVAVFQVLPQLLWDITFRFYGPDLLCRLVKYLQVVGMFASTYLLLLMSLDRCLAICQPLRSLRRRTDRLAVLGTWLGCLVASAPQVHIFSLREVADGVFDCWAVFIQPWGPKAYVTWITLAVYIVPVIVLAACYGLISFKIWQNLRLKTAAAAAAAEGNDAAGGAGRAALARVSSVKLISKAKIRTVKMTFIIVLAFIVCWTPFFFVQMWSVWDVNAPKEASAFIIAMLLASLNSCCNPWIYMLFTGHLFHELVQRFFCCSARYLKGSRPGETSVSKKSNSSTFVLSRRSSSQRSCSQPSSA
Assay: [3H]Oxytocin radioligand binding competition assay, crude membrane preparation of uteri from DES-treated rats
Conditions: for IC50: 1 nM [3H]OT, 60 minutes, 22 °C, rat uterine membranes
Experimental: The high affinity binding of [^3H] Oxytocin (OT)([tyrosyl, 3,5-[^3H]OT; 30-60 Ci/mmol; New England Nuclear. Boston, MA) to uterine OT receptors was based on an assay*using a crude membrane preparation of uteri taken from diethylstilbestrol dipropionate (DES)-treated (0.3 mg/kg, ip; 18-24) rats. Competition studies were conducted at equilibrium (60 minutes; 22 ° C) using 1 NM[^3H]OT in the following assay buffer: 50 mM Tris-HCI, 5 mM MgCl2, and 0.1% BSA, pH 7.4. Nonspecific binding (10% of the total binding) was determined using 1µM unlabeled OT and the binding reaction was terminated by filtration through glass fiber filters using a cell harvester (model 7019, Skatron, Inc., Sterling, VA).

IC50	SMILES	further results
	CC(=O)NC(CC=C1CC2CCC1(CS(=O)(=O)N1CCN(c3ccccc3C)CC1)C2(C)C)C(=O)O (centres unmarked) [Example 29, 1-((7,7-DIMETHYL-2-(3-ACETAMIDO-3-CARBOXY) PROPYLIDINE-BICYCLO(2.2.1)HEPTAN-1-YL) METHANESULFONYL)-4-(2-METHYLPHENYL)PIPERAZINE]	inhibition at 1 µM (read-out: inhibition at 1,000 nM): 78%
5.4 nM	Cc1ccccc1N1CCN(S(=O)(=O)CC23CCC(CC2NC(=O)C(CCS(C)(=O)=O)N(C)C)C3(C)C)CC1 (centres unmarked) [Example 38]	
	CCOC(=O)CN1CCCC(C(=O)NC(C)CC2(O)CC3CCC2(CS(=O)(=O)N2CCN(c4ccccc4C)CC2)C3(C)C)C1 (centres unmarked) [Example 57]	inhibition at 100 nM (at 100 nM): 66% inhibition at 100 nM
1.2 nM	Cc1ccccc1N1CCN(S(=O)(=O)CC23CCC(CC2NC(=O)C(CCS(C)(=O)=O)NC(=O)Cc2c[nH]cn2)C3(C)C)CC1 (centres unmarked) [Example 37]	
9.2 nM	Cc1ccccc1N1CCN(S(=O)(=O)CC23CCC(CC2N(C)C(=O)C(CCS(C)(=O)=O)N(C)C)C3(C)C)CC1 (centres unmarked) [Example 42]	
260 nM	Cc1ccccc1N1CCN(S(=O)(=O)CC23CCC(CC2C(=O)O)C3(C)C)CC1 (centres unmarked) [Example 24]	
120 nM	COC(=O)C1CC2CCC1(CS(=O)(=O)N1CCN(c3ccccc3C)CC1)C2(C)C (stereo not drawn) [Example 23, 1-((7,7-DIMETHYL-2-ENDO-METHOXYCARBONYL-BICYCLO (2.2.1)HEPTAN-1-YL)METHANESULFONYL)-4-(2-METHYLPHENYL)PIPERAZINE]	
6.3 nM	Cc1ccccc1N1CCN(S(=O)(=O)CC23CCC(CC2N(C)C(=O)C(N)CCS(C)(=O)=O)C3(C)C)CC1 (centres unmarked) [Example 41]	
